Earlier results, collected in publication PMC3598812, “Evaluation of Anti-Hyperalgesic and Analgesic Effects of Two Benzodiazepines in Human Experimental Pain: A Randomized Placebo-Controlled Study” (PLoS ONE, 2013).

Legend:
patients / volunteers = settings: placebo-controlled, double-blind trial, 114 outpatients with anxiety; mean doses 59 mg clobazam daily, 25 mg diazepam daily; ref Micromedex 2009; cited from earlier work
[1] = trial protocol, cited from earlier work
healthy male subjects = test system: healthy male subjects; set-up: method as in PMID 19038771; settings: capsaicin model, previous study; standard deviation 11.54; cited from earlier work

CN1C(=O)CN=C(c2ccccc2)c2cc(Cl)ccc21 [diazepam]
Dizziness, share of treated patients (patients / volunteers): 11% | Sedation, share of treated patients (patients / volunteers): 44%

O=C1CC(=O)N(c2ccccc2)c2cc(Cl)ccc2N1 [N-desmethylclobazam]
Half life (t1/2) ([1]; drug background): 50 h

CC(C)C[C@H](CN)CC(=O)O [pregabalin]
Reduction in the area of hyperalgesia (healthy male subjects): 10.91 cm^2

CCOC(=O)c1ncn2c1CN(C)C(=O)c1cc(F)ccc1-2 [Flumazenil]
t1/2 ([1]; iv): about 50 minutes
